The source of these data is patent US6737431B2 (Bristol-Myers Squibb Company, priority 2002, dated 2004).

One assay deals with T1, melatonin ML1a receptor (Homo sapiens, UniProt P48039).
T1 construct: expressed in transfected cells; membrane homogenates
Description: Melatonergic receptor binding, 2-[125I]-iodomelatonin, ML1a. The following applies: NIH-3T3 membranes, 0.1 nM 2-[125I]-iodomelatonin, 37° C. 1 hour. How it is done:
(§1) Melatonergic Receptor Binding Activity
(§2) (a) TME=50 mM Tris buffer containing 12.5 mM MgCl2, and 2 mM EDTA, pH 7.4 at 37° C., with concentrated HCl.
(§3) (b) Wash buffer: 20 mM Tris base containing 2 mM MgCl2, pH 7.4 at room temperature.
(§4) (c) 10^−4 M melatonin (10^−5 M final concentration).
(d) 2-[^125I]-iodomelatonin ML1a, 0.1 nM final concentration.
(§5) 2. Membrane Homogenates: The melatonin ML1a and ML1b receptors cDNA were individually subcloned into pcDNA3 and introduced into NIH-3T3 cells using Lipofectamine. Transformed NIH-3T3 cells resistant to geneticin (G-418) were isolated, and single colonies expressing high levels of 2[^125I]-iodomelatonin binding were isolated. Cells are maintained in DMEM supplemented with 10% calf serum and G-418 (0.5 g/liter). Cells are grown to confluency in T-175 flasks, scraped using Hank's balanced salt solution, and frozen at −80° C. For preparing membrane homogenates, pellets are thawed on ice, and re-suspended in TME buffer in the presence of 10 μg/ml aprotinin and leupeptin, and 100 μM phenylmethylsulfonylfluoride. The cells were then homogenized using a dounce homogenizer, and centrifuged. The resulting pellet was re-suspended with dounce homogenizer in TME (supplemented with the above protease inhibitors) and frozen. On the day of assay, a small aliquot was thawed on ice and re-suspended in the ice cold TME (1:50-1:100 v/v) and held on ice until assayed.
(§6) 3. Incubation: 37° C. for 1 hour. Reaction is terminated by filtration. Filters were washed 3 times.
(§7) 4. References: Reppert, S. M. et al., Neuron, 13, p. 1177-1185 (1994); and Reppert, S. M. et al., Proc. Natl. Acad. Sci. USA, 92, p. 8734-8738 (1995).
(§8) The compounds of the present invention have affinity for receptors of the endogenous pineal hormone, melatonin, as determined in receptor binding assays described above in Tables I to III for the ML1a and ML1b (human) receptors. Melatonin is involved in the regulation of a variety of biological rhythms and exerts its biological effects via interaction with specific receptors. There is evidence that administration of melatonin agonists are of clinical utility in the treatment of various conditions regulated by melatonin activity. Such conditions include depression, jet-lag, work-shift syndrome, sleep disorders, glaucoma, some disorders associated with reproduction, cancer benign prostatic hyperplasia, immune disorders, and neuroendocrine disorders.

The next assay concerns the target T2, melatonin ML1b receptor (Homo sapiens, UniProt P49286).
T2 construct: expressed in transfected cells; membrane homogenates
T2 sequence (P49286 1-362): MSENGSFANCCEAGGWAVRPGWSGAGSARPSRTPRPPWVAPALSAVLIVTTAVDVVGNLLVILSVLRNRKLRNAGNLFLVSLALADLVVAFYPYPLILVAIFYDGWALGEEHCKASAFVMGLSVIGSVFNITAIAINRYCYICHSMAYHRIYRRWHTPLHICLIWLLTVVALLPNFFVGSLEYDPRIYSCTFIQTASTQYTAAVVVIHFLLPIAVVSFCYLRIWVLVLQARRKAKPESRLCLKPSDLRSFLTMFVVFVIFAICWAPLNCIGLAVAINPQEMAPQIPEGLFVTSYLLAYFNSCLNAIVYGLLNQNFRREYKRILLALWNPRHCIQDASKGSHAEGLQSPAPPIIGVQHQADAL
Briefly: Melatonergic receptor binding, 2-[125I]-iodomelatonin, ML1b. The following applies: NIH-3T3 membranes, 0.2 nM 2-[125I]-iodomelatonin, 37° C. 1 hour. How it is done: as §1, §2, §3, §4
(e) 2-[^125I]-iodomelatonin ML1b, 0.2 nM final concentration.
as §5, §6, §7, §8

T1 sequence (P48039 whole entry): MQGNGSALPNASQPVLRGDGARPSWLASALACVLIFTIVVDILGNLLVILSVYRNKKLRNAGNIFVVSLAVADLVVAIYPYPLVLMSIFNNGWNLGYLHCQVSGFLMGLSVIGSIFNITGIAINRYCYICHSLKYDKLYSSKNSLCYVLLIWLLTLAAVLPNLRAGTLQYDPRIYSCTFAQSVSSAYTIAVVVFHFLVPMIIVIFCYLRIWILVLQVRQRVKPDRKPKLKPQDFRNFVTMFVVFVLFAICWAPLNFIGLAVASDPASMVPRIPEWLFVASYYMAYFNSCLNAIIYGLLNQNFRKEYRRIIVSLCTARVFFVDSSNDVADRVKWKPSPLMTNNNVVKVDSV

By IC50 is commonly meant the concentration at which inhibition is half-maximal. The low end stands for greater potency, the high end for weaker potency. Turning to `CCC(=O)NCCCc1cccc2nc(C)oc12` [Example 2, N-[3-(2-Methyl-7-benzoxazolyl)propyl]propanamide], the half-maximal inhibitory concentration (IC50) at melatonin ML1a receptor (Table I) and at melatonin ML1b receptor (Table I) was less than 10 nM each time.

In the case of `CCCC(=O)NC[C@@H]1C[C@H]1c1cccc2nc(C(C)C)oc12` [Example 87, N-({(1R,2R)-2-[2-(Methylethyl)benzoxazol-7-yl]cyclopropyl}methyl)butanamide], the IC50 on melatonin ML1a receptor (Table III) and on melatonin ML1b receptor (Table III) was less than 10 nM each time.

Consider `CC(C)c1nc2cccc([C@@H]3C[C@H]3CNC(=O)C3CC3)c2o1` [Example 91, N-({(1R,2R)-2-[2-(Methylethyl)benzoxazol-7-yl]cyclopropyl}methyl)cyclopropylcarboxamide], for which the IC50 at melatonin ML1a receptor (Table III) and on melatonin ML1b receptor (Table III) was less than 10 nM each time.

Regarding `Cc1nc2cccc(CCCNC(=O)C3CC3)c2o1` [Example 4, N-[3-(2-Methyl-7-benzoxazolyl)propyl]cyclopropanecarboxamide], the IC50 at melatonin ML1a receptor (Table I) and at melatonin ML1b receptor (Table I) was less than 10 nM each time.

In the case of `CCc1nc2ccc(-c3ccc(OC)cc3)c(CCCNC(=O)C3CC3)c2o1` [Example 54, Cyclopropyl-N-{3-[2-ethyl-6-(4-methoxyphenyl)benzoxazol-7-yl]propyl}carboxamide], the IC50 at melatonin ML1a receptor (Table II) was greater than 250 nM; at melatonin ML1b receptor (Table II), 10 to 250 nM.

For the molecule `CC(C)C(=O)NCCCc1cccc2nc(C(C)C)oc12` [Example 37, 2-Methyl-N-{3-[2-(methylethyl)benzoxazol-7-yl]propyl}propanamide], the half-maximal inhibitory concentration (IC50) on melatonin ML1a receptor (Table I) and on melatonin ML1b receptor (Table I) was 10 to 250 nM in each case.

As for `CCc1nc2cc(-c3ccc(OC)cc3)cc(CCCNC(=O)c3ccccc3)c2o1` [Example 63, N-{3-[2-Ethyl-5-(4-methoxyphenyl)benzoxazol-7-yl]propyl}benzamide], the figures for the IC50 on melatonin ML1a receptor (Table II) and on melatonin ML1b receptor (Table II) were 10 to 250 nM and greater than 250 nM, respectively.

In the case of `CCc1nc2cccc(CCCNC(C)=O)c2o1` [Example 7, N-[3-(2-Ethylbenzoxazol-7-yl)propyl]acetamide], the half-inhibitory concentration (IC50) was 10 to 250 nM on melatonin ML1a receptor (Table I) and less than 10 nM on melatonin ML1b receptor (Table I).

On to `CC(C)C(=O)NCCCc1cccc2nc(CCCCc3ccccc3)oc12` [Example 28, 2-Methyl-N-{3-[2-(4-phenylbutyl)benzoxazol-7-yl]propyl}propanamide], for which the IC50 at melatonin ML1a receptor (Table I) is less than 10 nM; at melatonin ML1b receptor (Table I), 10 to 250 nM.

As for `CCCc1nc2cccc([C@@H]3C[C@H]3CNC(=O)CC)c2o1` [Example 84, N-{[(1R,2R)-2-(2-Propylbenzoxazol-7-yl)cyclopropyl]methyl}propanamide], the half-maximal inhibitory concentration (IC50) on melatonin ML1a receptor (Table III) and at melatonin ML1b receptor (Table III) was less than 10 nM each time.

For the molecule `CCc1nc2ccc(-c3ccc(F)cc3)c(CCCNC(=O)C3CC3)c2o1` [Example 49, Cyclopropyl-N-{3-[2-ethyl-6-(4-fluorophenyl)benzoxazol-7-yl]propyl}carboxamide], the 50% inhibitory concentration (IC50) on melatonin ML1a receptor (Table II) was 10 to 250 nM; on melatonin ML1b receptor (Table II), less than 10 nM.

For the molecule `CCNC(=O)NCCCc1cccc2nc(C)oc12` [Example 6, (Ethylamino)-N-[3-(2-methylbenzoxazol-7-yl)propyl]carboxamide], the half-maximal inhibitory concentration (IC50) on melatonin ML1a receptor (Table I) and at melatonin ML1b receptor (Table I) was 10 to 250 nM in each case.

For the molecule `CCCC(=O)NCCCc1cccc2nc(CCC)oc12` [Example 15, N-[3-(2-Propylbenzoxazol-7-yl)propyl]butanamide], the concentration for half-maximal inhibition (IC50) is greater than 250 nM at melatonin ML1a receptor (Table I) and 10 to 250 nM on melatonin ML1b receptor (Table I).

On to `CCc1nc2ccc(-c3ccc(F)cc3)c(CCCNC(C)=O)c2o1` [Example 47, N-{3-[2-Ethyl-6-(4-fluorophenyl)benzoxazol-7-yl]propyl}acetamide], for which the figures for the IC50 at melatonin ML1a receptor (Table II) and on melatonin ML1b receptor (Table II) were 10 to 250 nM and less than 10 nM, respectively.

As to `C=Cc1ccc2nc(CC)oc2c1CCCNC(C)=O` [Example 43, N-Acetyl-7-(3-aminopropyl)-6-vinyl-2-ethylbenzoxazole], the figures for the half-inhibitory concentration (IC50) on melatonin ML1a receptor (Table II) and on melatonin ML1b receptor (Table II) were 10 to 250 nM and less than 10 nM, respectively.

As to `CCCC(=O)NCCCc1cccc2nc(CC)oc12` [Example 9, N-[3-(2-Ethylbenzoxazol-7-yl)propyl]butanamide], the values for the IC50 on melatonin ML1a receptor (Table I) and on melatonin ML1b receptor (Table I) were 10 to 250 nM and less than 10 nM, respectively.

As for `CC(=O)NCCCc1cccc2nc(-c3ccccc3)oc12` [Example 19, N-[3-(2-Phenylbenzoxazol-7-yl)propyl]acetamide], the IC50 at melatonin ML1a receptor (Table I) and at melatonin ML1b receptor (Table I) was 10 to 250 nM throughout.

As for `CCc1nc2cccc(CCCNC(=O)C(C)C)c2o1` [Example 10, N-[3-(2-Ethylbenzoxazol-7-yl)propyl]-2-methylpropanamide], the half-maximal inhibitory concentration (IC50) at melatonin ML1a receptor (Table I) and at melatonin ML1b receptor (Table I) was 10 to 250 nM each time.

Consider `CCc1nc2ccc(C)c(CCCNC(C)=O)c2o1` [Example 44, N-[3-(2-Ethyl-6-methylbenzoxazol-7-yl)propyl]acetamide], for which the IC50 at melatonin ML1a receptor (Table II) and on melatonin ML1b receptor (Table II) was 10 to 250 nM each time.

Regarding “N-({(1R,2R)-2-[2-(5-Phenylbutyl)benzoxazol-7-yl]cyclopropyl}methyl)propanamide [Example 95]”, the IC50 on melatonin ML1a receptor (Table III) and on melatonin ML1b receptor (Table III) was less than 10 nM in each case.

Regarding `CCc1nc2ccc(-c3ccco3)c(CCCNC(=O)c3ccccc3)c2o1` [Example 74, N-[3-(2-Ethyl-6-(2-furyl)benzoxazol-7-yl)propyl]benzamide], on melatonin ML1b receptor (Table II), the half-maximal inhibitory concentration (IC50) is greater than 250 nM.

As to `CCc1nc2cc(-c3ccc(F)cc3)cc(CCCNC(=O)C3CC3)c2o1` [Example 60, Cyclopropyl-N-{3-[2-ethyl-5-(4-fluorophenyl)benzoxazol-7-yl]propyl}carboxamide], the concentration for half-maximal inhibition (IC50) on melatonin ML1a receptor (Table II) and on melatonin ML1b receptor (Table II) was 10 to 250 nM throughout.

As for `CCc1nc2ccc(-c3ccc(C(F)(F)F)cc3)c(CCCNC(C)=O)c2o1` [Example 50, N-(3-{2-Ethyl-6-[4-(trifluoromethyl)phenyl]benzoxazol-7-yl}propyl)acetamide], the IC50 on melatonin ML1a receptor (Table II) was greater than 250 nM; on melatonin ML1b receptor (Table II) it was 10 to 250 nM.

As to `CCc1nc2ccc(-c3ccccc3)c(CCCNC(=O)c3ccccc3)c2o1` [Example 56, N-[3-(2-Ethyl-6-phenylbenzoxazol-7-yl)propyl]benzamide], the IC50 at melatonin ML1a receptor (Table II) and on melatonin ML1b receptor (Table II) was 10 to 250 nM in each case.

Turning to `CCc1nc2ccc(-c3ccc(OC)cc3)c(CCCNC(=O)c3ccccc3)c2o1` [Example 53, N-{3-[2-Ethyl-6-(4-methoxyphenyl)benzoxazol-7-yl]propyl}benzamide], the IC50 at melatonin ML1a receptor (Table II) and on melatonin ML1b receptor (Table II) was greater than 250 nM throughout.

In the case of `CCCc1nc2cccc(CCCNC(C)=O)c2o1` [Example 13, N-[3-(2-Propylbenzoxazol-7-yl)propyl]acetamide], the 50% inhibitory concentration (IC50) on melatonin ML1a receptor (Table I) is greater than 250 nM; on melatonin ML1b receptor (Table I), 10 to 250 nM.

Consider `CCc1nc2cc(-c3ccc(OC)cc3)cc(CCCNC(=O)C3CC3)c2o1` [Example 64, Cyclopropyl-N-{3-[2-ethyl-5-(4-methoxyphenyl)benzoxazol-7-yl]propyl}carboxamide], for which the 50% inhibitory concentration (IC50) on melatonin ML1a receptor (Table II) and on melatonin ML1b receptor (Table II) was greater than 250 nM each time.

For the molecule `CC(=O)NCCCc1cccc2nc(CCCCc3ccccc3)oc12` [Example 25, N-{3-[2-(4-Phenylbutyl)benzoxazol-7-yl]propyl}acetamide], the IC50 at melatonin ML1a receptor (Table I) was less than 10 nM; at melatonin ML1b receptor (Table I) it was 10 to 250 nM.

As to `CCCC(=O)NCCCc1cccc2nc(-c3ccccc3)oc12` [Example 21, N-[3-(2-Phenylbenzoxazol-7-yl)propyl]butanamide], the half-inhibitory concentration (IC50) on melatonin ML1a receptor (Table I) and at melatonin ML1b receptor (Table I) was 10 to 250 nM in each case.

Regarding `CCc1nc2cccc(CCCNC(=O)C3CC3)c2o1` [Example 11, Cyclopropyl-N-[3-(2-ethylbenzoxazol-7-yl)propyl]carboxamide], the values for the IC50 at melatonin ML1a receptor (Table I) and at melatonin ML1b receptor (Table I) were less than 10 nM and 10 to 250 nM, respectively.
